Usually GI50 stands for the concentration giving 50% growth inhibition. One may read the TGI as the concentration giving total growth inhibition. Higher therefore signals lower sensitivity of the cells.

Molecules are shown by their SMILES. Where “and” joins values, the source holds several entries; their conditions need not be identical. Equal entries are not always repeated.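 Exposure lasted 48 hours, with cells grown in 96-well plates and compounds tested at five concentrations. Here, GI50 denotes the concentration required for 50% inhibition of growth. TGI is the concentration that stops growth completely.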

For ten compounds, GI50 and TGI results are on record in PubChem BioAssay (NCI).

What all share (assay): DTP human tumour cell line panel, 48 h
The test system of test [1] is UO-31 renal.
The subject of test [2] is RXF 393 renal.
Test [3] has as its system U251 CNS.
Test [4] deals with NCI-H226 lung.
The subject of test [5] is MDA-MB-231 breast.
In test [6] the test system is NCI-H460 lung.
For test [7], the system named is ACHN renal.
Test [8] relates to LOX IMVI melanoma.

Turning to `CN1CCN(c2ccc(NC(=O)c3cncnc3Nc3ccc(OCc4cccc(F)c4)c(Cl)c3)cc2)CC1`, the GI50 in test [1] is 0.893 µM; in test [2] it was 0.956 µM; in test [3], 1.07 µM; in test [4], 40.9 µM; in test [5], 0.971 µM; in test [6], 1.14 µM. The results for the GI50 in test [7] and in test [8] were 1.34 µM and 0.849 µM, respectively. Besides, the total growth inhibition concentration (TGI) in test [1] is 1.7 µM; in test [2] it was 1.9 µM; in test [3], 2.52 µM; in test [4], more than 50 µM; in test [5], 1.99 µM; in test [6], 2.47 µM. Further, the TGI in test [7] was determined as 3.74 µM; in test [8] it was 1.61 µM.
As for `COc1ccc(Cn2cc3c(c2)-c2oncc2CC3)cc1OC`, the concentration for 50% growth inhibition (GI50) was 0.272 µM in test [1]; 0.173 µM in test [2]; 0.211 µM in test [3]; 0.704 µM in test [4]; 0.255 µM in test [5]; 0.161 µM in test [6]. In addition, the GI50 in test [7] was 0.325 µM; in test [8] it was 0.366 µM. For the same compound, the TGI was 23.8 µM in test [1]; more than 28.1 µM in test [3]; more than 50 µM in test [4]; more than 14.3 µM in test [5]; 0.89 µM in test [6]; more than 50 µM in test [7]. The compound also returned a TGI in test [8] of more than 50 µM.
On to `O=C(COc1ccc(OCC(=O)N2C(=O)CN(c3ccccc3)C2=S)cc1)N1C(=O)CN(c2ccccc2)C1=S`, for which the GI50 in test [1], in test [2], in test [3], in test [5], in test [6] and in test [7] was more than 25 µM each time. Further, the GI50 in test [8] was 29.6 µM. In addition, the total growth inhibition concentration (TGI) in test [1], in test [2], in test [3], in test [4], in test [5] and in test [6] was more than 100 µM in each case. Also, the TGI in test [7] and in test [8] was more than 100 µM throughout.
For the compound `COc1ccc(-c2[nH]nc(N)c2-c2cc(OC)c3c(c2)OCO3)cc1`, the GI50 is 4.35 µM in test [1]; 3.63 µM in test [2]; 4.29 µM in test [3]; 8.36 µM in test [4]; 5.5 µM in test [5]; 3.38 µM in test [6]. The GI50 in test [7] was 6.88 µM; in test [8], 4.86 µM. In addition, the TGI in test [1] is 69.7 µM; in test [2] it was 16.1 µM; in test [3] it was more than 100 µM; in test [4], more than 100 µM; in test [5], more than 100 µM; in test [6] it was more than 100 µM. Moreover, the TGI in test [7] and in test [8] was more than 100 µM each time.
For the compound `Cc1ccc(/C=C/c2c(C(=O)/C=C/c3ccc(Cl)cc3)c(C)nc3ccccc23)cc1`, the GI50 in test [1] is 1.16 µM; in test [2], 1.79 µM; in test [3], 1.7 µM; in test [4], 1.92 µM; in test [5], 1.77 µM; in test [6], 1.73 µM. Besides, the values for the GI50 in test [7] and in test [8] were 1.54 µM and 1.53 µM, respectively. Further, the total growth inhibition concentration (TGI) came out at 2.38 µM in test [1]; 3.45 µM in test [2]; 3.38 µM in test [3]; 3.92 µM in test [4]; 3.68 µM in test [5]; 3.49 µM in test [6]. The TGI was 2.88 µM in test [7] and 2.87 µM in test [8].
`O=S(=O)(c1ccccc1)N1CN2CN(C1)CN(S(=O)(=O)c1ccccc1)C2`: the TGI in test [1], in test [2], in test [3], in test [4], in test [5] and in test [6] was more than 100 µM throughout. For the same compound, the TGI in test [7] and in test [8] was more than 100 µM in each case.
With `COc1cccc(/C=C/c2ccnc3ccccc23)c1OC`, the TGI in test [1], in test [2], in test [3], in test [4], in test [5] and in test [6] was more than 10 µM in each case. Besides, the TGI in test [7] and in test [8] was more than 10 µM in each case.
In the case of `O=c1c2ccccc2nc(-c2ccccc2Cl)n1-c1nnc(C(F)(F)F)s1`, the GI50 was 2.75 µM in test [1]; 2.77 µM in test [2]; 2.46 µM in test [3]; 2.4 µM in test [4]; 2.59 µM in test [5]; 3.38 µM in test [6]. The GI50 in test [7] is 3.74 µM; in test [8], 3.37 µM. Besides, the TGI was 11.6 µM in test [1]; 14.4 µM in test [2]; 12.9 µM in test [3]; 8.55 µM in test [4]; 9.38 µM in test [5]; 23.3 µM in test [6]. In addition, the TGI in test [7] stood at 27.7 µM; in test [8] it was 14.2 µM.
On to `Nc1cc(C(F)(F)F)c(-c2cc(N3CCOCC3)nc(N3CCOCC3)n2)cn1`, for which the GI50 is 0.309 µM and 0.527 µM in test [1]; 0.561 µM and 0.65 µM in test [2]; 1.51 µM and 1.78 µM in test [3]; 0.839 µM and 0.592 µM in test [4]; 1.26 µM and 2.06 µM in test [5]; 0.646 µM and 0.451 µM in test [6]. The GI50 in test [7] is 0.906 µM and 1.14 µM; in test [8] it was 0.807 µM and 0.907 µM. Further, the TGI is 2.83 µM and 3.26 µM in test [2]; more than 25 µM in test [3]; 4.42 µM and 4.6 µM in test [4]; > 8.48 µM and 11.9 µM in test [5]; 7.27 µM and 12.4 µM in test [6]; more than 100 µM in test [7]. In addition, the TGI in test [8] was more than 33.4 µM.
On to `COc1cc(/C=C/C(=O)N2CCC=CC2=O)cc(OC)c1OC`, for which the GI50 in test [1] is 1.78 µM; in test [2], 1.73 µM; in test [3], 3.19 µM; in test [4], 2.41 µM; in test [5], 3.38 µM; in test [6], 3.36 µM. Besides, the GI50 in test [7] is 1.73 µM; in test [8] it was 2.09 µM. Besides, the TGI in test [1] amounted to 5.09 µM; in test [2], 4.07 µM; in test [3], 11 µM; in test [4] it was 6.55 µM; in test [5], 10.8 µM; in test [6] it was 10.6 µM. Besides, the TGI stood at 3.28 µM in test [7] and 5.13 µM in test [8].
